Data from patent US11759455B2, “Substituted 1H-imidazo[4,5-b]pyridin-2(3H)-ones and their use as GLUN2B receptor modulators” (JANSSEN PHARMACEUTICA NV, priority 2016, dated 2023).

Biological target: T1, human GluN1/GluN2B NMDA receptors (Homo sapiens, UniProt Q13224)
T1 construct: expressed in transfected cells
Assay: Cell-based calcium flux (FLIPR) assay on cloned human NR1/NR2B ion channels expressed in mammalian cells (standard and HTS buffer variants);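 also: stable Tet-On inducible cell line, Ca2+ influx triggered by glutamate at about EC40 plus 10 µM glycine, fluorescent dye read-out over 5 min, normalized to control wells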
Conditions: standard assay buffer (0.5 mM MgCl2 in dye loading buffer; 137 mM NaCl, 4 mM KCl in assay buffer), human GluN1/GluN2B, read-out: NR2B IC50 (μM) standard assay

T1 sequence (Q13224 27-1484, other chains not shown): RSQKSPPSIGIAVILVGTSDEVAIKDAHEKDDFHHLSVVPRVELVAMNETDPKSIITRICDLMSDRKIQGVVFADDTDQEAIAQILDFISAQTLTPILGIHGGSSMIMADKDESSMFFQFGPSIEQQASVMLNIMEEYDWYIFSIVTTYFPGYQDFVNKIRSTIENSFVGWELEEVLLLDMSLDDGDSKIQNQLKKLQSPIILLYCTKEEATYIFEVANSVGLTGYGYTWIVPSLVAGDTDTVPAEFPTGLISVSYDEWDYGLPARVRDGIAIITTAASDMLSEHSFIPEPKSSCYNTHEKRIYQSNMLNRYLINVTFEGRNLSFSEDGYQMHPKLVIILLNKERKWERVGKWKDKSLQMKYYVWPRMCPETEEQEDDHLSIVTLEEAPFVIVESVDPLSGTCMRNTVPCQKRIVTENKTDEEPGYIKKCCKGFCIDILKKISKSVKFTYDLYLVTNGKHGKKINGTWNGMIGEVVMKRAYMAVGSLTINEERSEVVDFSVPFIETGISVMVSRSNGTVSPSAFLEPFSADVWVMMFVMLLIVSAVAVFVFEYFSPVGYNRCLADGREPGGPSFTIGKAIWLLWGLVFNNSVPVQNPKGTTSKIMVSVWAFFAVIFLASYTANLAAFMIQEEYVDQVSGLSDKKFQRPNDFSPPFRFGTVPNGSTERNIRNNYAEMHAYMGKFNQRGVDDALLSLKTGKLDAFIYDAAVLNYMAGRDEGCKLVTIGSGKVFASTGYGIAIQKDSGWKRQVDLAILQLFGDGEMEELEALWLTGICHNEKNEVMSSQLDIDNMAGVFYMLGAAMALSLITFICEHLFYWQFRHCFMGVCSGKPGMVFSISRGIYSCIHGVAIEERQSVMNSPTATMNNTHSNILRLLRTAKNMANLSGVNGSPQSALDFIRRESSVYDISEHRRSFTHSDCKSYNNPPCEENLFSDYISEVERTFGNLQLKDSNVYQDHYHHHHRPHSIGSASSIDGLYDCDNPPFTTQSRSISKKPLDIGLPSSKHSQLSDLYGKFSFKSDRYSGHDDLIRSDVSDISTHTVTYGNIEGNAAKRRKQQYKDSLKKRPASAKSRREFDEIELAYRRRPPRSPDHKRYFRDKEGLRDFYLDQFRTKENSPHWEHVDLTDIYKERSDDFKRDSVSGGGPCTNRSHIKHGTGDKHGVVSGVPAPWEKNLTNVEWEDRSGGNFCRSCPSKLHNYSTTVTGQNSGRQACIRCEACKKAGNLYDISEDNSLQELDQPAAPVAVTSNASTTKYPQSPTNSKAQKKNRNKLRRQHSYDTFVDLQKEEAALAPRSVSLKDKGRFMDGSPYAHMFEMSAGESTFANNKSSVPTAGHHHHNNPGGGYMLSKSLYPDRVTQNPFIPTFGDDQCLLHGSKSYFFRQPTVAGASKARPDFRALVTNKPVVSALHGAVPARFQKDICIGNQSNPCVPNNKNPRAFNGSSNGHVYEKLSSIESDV

Structure (SMILES)	IC50
CN(C)C(=O)Cn1c(=O)n(C)c2ncc(-c3ccc(F)c(OC(F)F)c3)cc21 [Example 587, 2-[6-[3-(Difluoromethoxy)-4-fluoro-phenyl]-3-methyl-2-oxo-imidazo[4,5-b]pyridin-1-yl]-N,N-dimethyl-acetamide]	0.035 µM
Cn1c(=O)n(CC(=O)N2CCC2)c2cc(-c3ccc(F)c(OC(F)F)c3)cnc21 [Example 588, 1-[2-(Azetidin-1-yl)-2-oxo-ethyl]-6-[3-(difluoromethoxy)-4-fluoro-phenyl]-3-methyl-imidazo[4,5-b]pyridin-2-one]	0.023 µM
Cn1c(=O)n(CC(=O)N2CC(F)C2)c2cc(-c3ccc(F)c(OC(F)F)c3)cnc21 [Example 589, 6-[3-(Difluoromethoxy)-4-fluoro-phenyl]-1-[2-(3-fluoroazetidin-1-yl)-2-oxo-ethyl]-3-methyl-imidazo[4,5-b]pyridin-2-one]	0.028 µM
CN(C)C(=O)Cn1c(=O)n(C)c2ncc(-c3ccc(Cl)c(OC(F)F)c3)cc21 [Example 591, 2-[6-[4-Chloro-3-(difluoromethoxy)phenyl]-3-methyl-2-oxo-imidazo[4,5-b]pyridin-1-yl]-N,N-dimethyl-acetamide]	0.034 µM
Cn1c(=O)n(CC(=O)N2CCC2)c2cc(-c3ccc(Cl)c(OC(F)F)c3)cnc21 [Example 592, 1-[2-(Azetidin-1-yl)-2-oxo-ethyl]-6-[4-chloro-3-(difluoromethoxy)phenyl]-3-methyl-imidazo[4,5-b]pyridin-2-one]	0.071 µM
Cn1c(=O)n(CC(=O)N2CC(F)C2)c2cc(-c3ccc(Cl)c(OC(F)F)c3)cnc21 [Example 593, 6-[4-Chloro-3-(difluoromethoxy)phenyl]-1-[2-(3-fluoroazetidin-1-yl)-2-oxo-ethyl]-3-methyl-imidazo[4,5-b]pyridin-2-one]	0.053 µM

More lines, now with the values ahead:

IC50	Structure (SMILES)
0.015 µM	Cc1c(F)ccc(-c2cnc3[nH]c(=O)n(CC(=O)N4CCC4)c3c2)c1F [Example 579, 1-[2-(Azetidin-1-yl)-2-oxo-ethyl]-6-(2,4-difluoro-3-methyl-phenyl)-3H-imidazo[4,5-b]pyridin-2-one]
0.026 µM	Cc1cccc(-c2cnc3[nH]c(=O)n(CC(=O)N4CC(F)(F)C4)c3c2)c1 [Example 580, 1-[2-(3,3-Difluoroazetidin-1-yl)-2-oxo-ethyl]-6-(m-tolyl)-3H-imidazo[4,5-b]pyridin-2-one]
0.032 µM	Cc1cccc(-c2cnc3c(c2)n(CC(=O)N2CC(F)(F)C2)c(=O)n3C)c1 [Example 581, 1-[2-(3,3-Difluoroazetidin-1-yl)-2-oxo-ethyl]-3-methyl-6-(m-tolyl)imidazo[4,5-b]pyridin-2-one]
0.051 µM	Cc1cccc(-c2cnc3c(c2)n(CC(=O)N(C)C)c(=O)n3C)c1 [Example 583, N,N-Dimethyl-2-[3-methyl-6-(m-tolyl)-2-oxo-imidazo[4,5-b]pyridin-1-yl]acetamide]
0.024 µM	Cn1c(=O)n(CC(=O)N2CCC2)c2cc(-c3ccc(F)c(C(F)F)c3)cnc21 [Example 584, 1-[2-(Azetidin-1-yl)-2-oxo-ethyl]-6-[3-(difluoromethyl)-4-fluoro-phenyl]-3-methyl-imidazo[4,5-b]pyridin-2-one]
0.018 µM	Cn1c(=O)n(CC(=O)N2CC(F)C2)c2cc(-c3ccc(F)c(C(F)F)c3)cnc21 [Example 585, 6-[3-(Difluoromethyl)-4-fluoro-phenyl]-1-[2-(3-fluoroazetidin-1-yl)-2-oxo-ethyl]-3-methyl-imidazo[4,5-b]pyridin-2-one]
0.051 µM	Cn1c(=O)n(CC(=O)N2CC(F)(F)C2)c2cc(-c3ccc(F)c(C(F)F)c3)cnc21 [Example 586, 1-[2-(3,3-Difluoroazetidin-1-yl)-2-oxo-ethyl]-6-[3-(difluoromethyl)-4-fluoro-phenyl]-3-methyl-imidazo[4,5-b]pyridin-2-one]
0.025 µM	Cn1c(=O)n(CC(=O)N2CC(F)(F)C2)c2cc(-c3ccc(F)c(OC(F)F)c3)cnc21 [Example 590, 1-[2-(3,3-Difluoroazetidin-1-yl)-2-oxo-ethyl]-6-[3-(difluoromethoxy)-4-fluoro-phenyl]-3-methyl-imidazo[4,5-b]pyridin-2-one]
